Experimental data reported in PMC7052193, “Nanobody-enabled monitoring of kappa opioid receptor states” (Nature Communications, 2020).
Where “and” joins values, the source holds several entries; their conditions need not be identical. Identical values can stand only once. Like-named read-outs stand apart in the source and are kept apart here.

Assays:
5-HT2AR [1] = assay type: cell-based, human; conditions: 5-HT2AR-KOR, Log [5-HT]
5-HT4R = assay type: cell-based, human; conditions: Gαs, 5-HT4R wt
5-HT2AR [2] = assay type: cell-based, human; conditions: 5-HT2AR-KOR, Log [Drug]
HRH2 [3] = molecular target: HRH2 (Homo sapiens, UniProt P25021); conditions: Log [Histamine]
Sequence of HRH2 (Homo sapiens, UniProt P25021) (P25021 whole entry): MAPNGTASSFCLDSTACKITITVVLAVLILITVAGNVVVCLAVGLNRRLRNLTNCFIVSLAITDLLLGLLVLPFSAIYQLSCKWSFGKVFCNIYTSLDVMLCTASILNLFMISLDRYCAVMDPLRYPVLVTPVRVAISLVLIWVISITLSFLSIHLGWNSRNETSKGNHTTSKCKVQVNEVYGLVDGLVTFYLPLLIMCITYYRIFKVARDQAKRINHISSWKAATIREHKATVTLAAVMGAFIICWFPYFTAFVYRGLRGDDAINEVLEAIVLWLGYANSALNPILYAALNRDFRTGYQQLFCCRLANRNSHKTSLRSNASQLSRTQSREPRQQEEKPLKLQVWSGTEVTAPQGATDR

HRH2 [4] = conditions: Log [Histamine]
HRH2 [5] = conditions: Gαs, HRH2 wt
human wild-type KOR = human wild-type KOR (Homo sapiens, UniProt P41145); test: [3H]-JDTic association and dissociation assays; assay type: binding
Sequence of human wild-type KOR (P41145 whole entry): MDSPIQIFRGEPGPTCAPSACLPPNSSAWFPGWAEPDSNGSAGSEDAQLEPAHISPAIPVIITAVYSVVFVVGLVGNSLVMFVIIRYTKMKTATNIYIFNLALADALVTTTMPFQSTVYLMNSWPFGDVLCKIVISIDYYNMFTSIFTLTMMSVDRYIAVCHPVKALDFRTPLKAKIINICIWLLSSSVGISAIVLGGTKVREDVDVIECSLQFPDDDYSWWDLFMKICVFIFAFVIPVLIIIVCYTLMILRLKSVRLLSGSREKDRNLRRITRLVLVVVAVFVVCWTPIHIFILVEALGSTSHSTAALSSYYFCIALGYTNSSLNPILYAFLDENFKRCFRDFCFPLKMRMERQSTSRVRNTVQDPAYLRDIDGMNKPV
Method: Radioligand dissociation and association assays were performed in parallel using the same concentrations of radioligand, membrane preparations and binding buffer (50 mM Tris, 10 mM MgCl2, 0.1 mM EDTA, 0.1% BSA, pH 7.4).
Time points spanned 1 min to 6 h, depending on experimental conditions and radioligand. The association (Kon) and dissociation (Koff) values were calculated using the Prism model:
Association kinetics to obtain kon5 Y=Ymax*(1−e^−kob*X).
Dissociation—one phase exponential decay to obtain koff6 Y=YO−NS*e^−K*X,

KOR = KOR (Homo sapiens, UniProt P41145); test: cAMP inhibition assay (GloSensor); assay type: cell-based
Sequence of KOR (P41145 whole entry): as above

kappa receptor = molecular target: kappa receptor; set-up: method as in Thomas JB et al., 2001; conditions: previously reported; ref Thomas JB et al., 2001; read-out: Ki, kappa receptor binding assay; cited from earlier work
[6] = molecular target: T1, human KOR containing C-terminal Renilla luciferase (RLuc8) (human, UniProt P41145); test: FRET or BRET; live HEK 293T cells co-transfected with receptor-RLuc and nanobody-mVenus (1:3); net BRET ratio without agonist (no drug, or with the antagonist JDTic); 20 mM HEPES, 1X HBSS, pH 7.4; conditions: partners not purified
T1 construct: kappa opioid receptor, human, wild type; also called KOR-Rluc; kappa opioid receptor; source: HEK 293T, co-transfected, in live cells; not shown: RLuc8, C-terminal, kept
T1 sequence (P41145 whole entry): as above

[7] = read-out: EC50, G protein activation

NCCc1c[nH]c2ccc(O)cc12 [5-HT]
Net BRET receptor and Nb6, source data Figure 5b (5-HT2AR [1]; M = -4): 4.555 and 4.236 and 2.584
Net BRET receptor and Nb6, source data Figure 5b (5-HT2AR [1]; M = -6): 27.0627 and 18.3518 and 18.7135
Net BRET receptor and Nb6, source data Figure 5b (5-HT2AR [1]; M = -7): 54.7274 and 50.7842 and 46.0256
Net BRET receptor and Nb6, source data Figure 5b (5-HT2AR [1]; M = -8): 79.692 and 81.7337 and 74.4168
Net BRET receptor and Nb6, source data Figure 5b (5-HT2AR [1]; M = -9): 96.2676 and 98.9652 and 90.7989
Net BRET receptor and Nb6, source data Figure 5b (5-HT2AR [1]; M = -10): 102.206 and 99.7037 and 92.1127
Net BRET receptor and Nb6, source data Figure 5b (5-HT2AR [1]; M = -11): 99.4094 and 102.177 and 98.4133
pEC50 ± SEM, G protein activation (5-HT4R): 8.55 ± 0.13
EC50 (5-HT4R; [7]): 2.85 nM
Net BRET G protein activation, source data Figure 5c (5-HT2AR [2]; M = -5): 4.77 and 5.378 and 5.642
Net BRET G protein activation, source data Figure 5c (5-HT2AR [2]; M = -7): 5.149 and 9.509 and 8.117
Net BRET G protein activation, source data Figure 5c (5-HT2AR [2]; M = -8): 64.908 and 45.488 and 55.524
Net BRET G protein activation, source data Figure 5c (5-HT2AR [2]; M = -9): 89.3557 and 61.3025 and 75.4781
Net BRET G protein activation, source data Figure 5c (5-HT2AR [2]; M = -10): 101.409 and 99.4572 and 101.001
Net BRET G protein activation, source data Figure 5c (5-HT2AR [2]; M = -11): 93.2037 and 102.876 and 98.9921
Net BRET G protein activation, source data Figure 5c (5-HT2AR [2]; M = -12): 99.8736 and 92.5765 and 96.7631

NCCc1c[nH]cn1 [Histamine]
HRH2 wt (Figure S10) (HRH2 [3]; M -4): 0.035 and 0.037 and 0.032
HRH2 wt (Figure S10) (HRH2 [3]; M -5): 0.04 and 0.037 and 0.043
HRH2 wt (Figure S10) (HRH2 [3]; M -6): 0.037 and 0.041 and 0.043
HRH2 wt (Figure S10) (HRH2 [3]; M -7): 0.041 and 0.036 and 0.042
HRH2 wt (Figure S10) (HRH2 [3]; M -8): 0.038 and 0.039
HRH2 wt (Figure S10) (HRH2 [3]; M -9): 0.037 and 0.039 and 0.042
HRH2 wt (Figure S10) (HRH2 [3]; M -10): 0.036 and 0.04 and 0.031
HRH2 wt (Figure S10) (HRH2 [3]; M -11): 0.029 and 0.038 and 0.037
HRH2-KOR (Figure S10) (HRH2 [4]; M -4): 5.219 and 6.229 and 8.754
HRH2-KOR (Figure S10) (HRH2 [4]; M -8): 49.1583 and 70.3704
HRH2-KOR (Figure S10) (HRH2 [4]; M -9): 71.8855 and 67.8451 and 91.0774
HRH2-KOR (Figure S10) (HRH2 [4]; M -10): 90.0673 and 96.633 and 108.754
HRH2-KOR (Figure S10) (HRH2 [4]; M -11): 95.6229 and 98.6532 and 105.724
pEC50 ± SEM, G protein activation (HRH2 [5]): 7.64 ± 0.10
EC50 (HRH2 [5]; [7]): 23.2 nM

CC(C)[C@@H](CN1CC[C@@](C)(c2cccc(O)c2)[C@@H](C)C1)NC(=O)[C@H]1Cc2ccc(O)cc2CN1 [JDTic, (3R)-7-hydroxy-N-((1S)-1-[[(3R,4R)-4-(3-hydroxyphenyl)-3,4-dimethyl-1-piperidinyl]methyl]-2-methylpropyl)-1,2,3,4-tetrahydro-3-isoquinolinecarboxamide]
change of binding affinity (Ki) or equilibrium constant (Kd) with KOR in the presence of Nb6 or Nb39 (human wild-type KOR): no significant changes
t1/2 increase, KOR preincubated with Nb6 compared to untreated KOR (human wild-type KOR): ~ 2 fold
BMAX ± SEM (human wild-type KOR; KOR + Nb6): 468 ± 54 CPM
BMAX ± SEM (human wild-type KOR; KOR + Nb39): 423 ± 59 CPM
BMAX ± SEM (human wild-type KOR; KOR wt): 412 ± 46 CPM
activity at KOR, Gi-mediated inhibition of cAMP production (KOR): potent inverse agonist
Ki (kappa receptor): 0.3 nM

B1: Nb6-mVenus with R102 mutated (VHH)
VHH: QVQLQESGGGLVQAGESLRLSCAASGTIFRLYDMGWYRRVSGNQRELVASITSGGSTKYGDSVKGRFTISRDNAKNTVYLQMSSLKPEDTAVYYCNAEYATGIWEELLDGWGQGTQVTVSS
notes: as the chain of m4 (PDB 6VI4) with R102 mutated; also called Nb6 R102 mutant; source: HEK 293T, co-transfected, in live cells; not shown: mVenus, C-terminal, kept
binding result [6]: no binding

B2: Nb6-mVenus with W106 mutated (VHH)
VHH: QVQLQESGGGLVQAGESLRLSCAASGTIFRLYDMGWYRRVSGNQRELVASITSGGSTKYGDSVKGRFTISRDNAKNTVYLQMSSLKPEDTAVYYCNAEYRTGIAEELLDGWGQGTQVTVSS
notes: as the chain of m4 (PDB 6VI4) with W106 mutated; also called Nb6 W106 mutant; source: HEK 293T, co-transfected, in live cells; not shown: mVenus, C-terminal, kept
binding result [6]: no binding
